The source of these data is patent US11655238B2 (priority 2018, dated 2023).

Converted amounts (≈) assume the structure as drawn. Like-named read-outs stand apart in the source and are kept apart here.

What all share (assay type): cell-based
Assay [1] deals with Mycobacterium smegmatis strain (mc2155). In words: Resazurin microplate MIC on Mycobacterium smegmatis. As to conditions: for MIC: Mycolicibacterium smegmatis, MC2155, 48 h. For orientation: Alamar Blue is a resazurin reagent that responds to reducing activity.
Assay [2] concerns Mycobacterium bovis BCG strain. Briefly: microbe, parasite or virus in culture. As to conditions: for MIC: Mycobacterium tuberculosis variant bovis BCG, BCG, 168 h, read-out: MIC (μg/mL) Mycobacterium bovis BCG, BCG strain, 7H9 medium, 37° C., 168 hours, resazurin; for inhibitory effect on BCG strain (summary of Table 2): in words.
Assay [3] has as its system Mycobacterium tuberculosis H37Ra strain. In words: microbe, parasite or virus in culture. Conditions: for MIC: Mycobacterium tuberculosis, H37RA, 168 h, read-out: MIC (μg/mL) Mycobacterium tuberculosis H37Ra.
[4] abbreviates: mc2155, 7H9 medium, 37° C., 48 hours, resazurin, read-out: MIC (μg/mL) Mycobacterium smegmatis.

With `Cc1c(CNS(=O)(=O)CCNC23CC4CC(C)(CC(C)(C4)C2)C3)nn(-c2ccc(Cl)cc2Cl)c1-c1ccc(Cl)cc1` [Compound 168, N-((5-(4-chlorophenyl)-1-(2,4-dichlorophenyl)-4-methyl-1H-pyrazol-3-yl)methyl)-2-(((1r,3R,5S,7r)-3,5-dimethyl-adamantan-1-yl)amino)ethane-1-sulfonamide], the MIC in assay [1] (setting [4]) came to 21.3 µg/mL (≈ 33.5 µM); in assay [2], 21.3 µg/mL (≈ 33.5 µM); in assay [3], 10.7 µg/mL (≈ 16.8 µM).

For the molecule `Cc1c(CNCCCNC2C3CC4CC(C3)CC2C4)nn(-c2ccc(Cl)cc2Cl)c1-c1ccc(Cl)cc1` (stereo not drawn) [Compound 164, N1-((1r,3r,5r,7r)-adamantan-2-yl)-N3-((5-(4-chloro-phenyl)-1-(2,4-dichloro-phenyl)-4-methyl-1H-pyrazol-3-yl)methyl)propane-1,3-diamine], the MIC is above 207 µg/mL in assay [1] (setting [4]), 3.24 µg/mL (≈ 5.81 µM) in assay [2] and 3.24 µg/mL (≈ 5.81 µM) in assay [3].

Consider `Cc1c(C(=O)N(C)CCNC2C3CC4CC(C3)CC2C4)nn(-c2ccc(Cl)cc2Cl)c1-c1ccc(Cl)cc1` (stereo not drawn) [Compound 74, N-(2-(((1r,3r,5r,7r)-adamantan-2-yl)amino)ethyl)-5-(4-chlorophenyl)-1-(2,4-dichlorophenyl)-N,4-dimethyl-1H-pyrazole-3-carboxamide], for which the “inhibitory effect on smegmatis strain (summary of Table 2)” value (“inhibitory effect on smegmatis strain” below) in assay [1] is listed as “good inhibitory effects”. For the same molecule, the MIC in assay [1] (setting [4]) was 13.4 µg/mL (≈ 23.4 µM). Besides, in assay [2], the MIC was found to be 3.35 µg/mL (≈ 5.86 µM) and the “inhibitory effect on BCG strain (summary of Table 2)” value (shortened to “inhibitory effect on BCG strain”) is on record as “good inhibitory effects”. For the same molecule, in assay [3], the “inhibitory effect on H37Ra strain (summary of Table 2)” value (shortened to “inhibitory effect on H37Ra strain”) is listed as “good inhibitory effects” and the MIC amounted to 3.35 µg/mL (≈ 5.86 µM).

Regarding `Cc1c(C(=O)OC2CC3CCC2(C)C3(C)C)nn(-c2ccc(Cl)cc2Cl)c1-c1ccc(Cl)cc1` (stereo not drawn) [Compound 171, 1,7,7-trimethylbicyclo[2.2.1]-heptan-2-yl 5-(4-chlorophenyl)-1-(2,4-dichlorophenyl)-4-methyl-1H-pyrazole-3-carbox-ylate], the MIC is 200 µg/mL (≈ 386 µM) in assay [1] (setting [4]), above 200 µg/mL in assay [2] and above 200 µg/mL in assay [3].

Regarding `Cc1c(CNCCCCNC2C3CC4CC(C3)CC2C4)nn(-c2ccc(Cl)cc2Cl)c1-c1ccc(Cl)cc1` (stereo not drawn) [Compound 167, N1-((1r,3r,5r,7r)-adamantan-2-yl)-N4-((5-(4-chlorophenyl)-1-(2,4-dichlorophenyl)-4-methyl-1H-pyrazol-3-yl)-methyl)butane-1,4-diamine], the MIC is 2.1 µg/mL (≈ 3.67 µM) in assay [1] (setting [4]), 1.05 µg/mL (≈ 1.84 µM) in assay [2] and 2.1 µg/mL (≈ 3.67 µM) in assay [3].

For the molecule `Cc1c(C(=O)NCCCNC2C3CC4CC(C3)CC2C4)nn(-c2ccc(Cl)cc2Cl)c1-c1ccc(Cl)cc1` (stereo not drawn) [Compound 18, N-(3-(((1r,3r,5r,7r)-adamantan-2-yl)amino)propyl)-5-(4-chlorophenyl)-1-(2,4-dichlorophenyl)-4-methyl-1H-pyrazole-3-carboxamide], the “inhibitory effect on smegmatis strain” value in assay [1] is listed as “good inhibitory effects”. For the same molecule, the MIC is 24.4 µg/mL (≈ 42.6 µM) in assay [1] (setting [4]), 6.1 µg/mL (≈ 10.7 µM) in assay [2] and 6.1 µg/mL (≈ 10.7 µM) in assay [3]. Further, the “inhibitory effect on BCG strain” value in assay [2] is “good inhibitory effects”. For the same molecule, in assay [3], the “inhibitory effect on H37Ra strain” value was “good inhibitory effects”.

For `Cc1c(C(=O)NCCNC23CC4CC(CC(C4)C2)C3)nn(-c2ccc(Cl)cc2Cl)c1-c1ccc(Cl)cc1` [Compound 163, N-(2-(((3s,5s,7s)-adamantan-1-yl)amino)ethyl)-5-(4-chloro-phenyl)-1-(2,4-dichloro-phenyl)-4-methyl-1H-pyrazole-3-carboxamide], the “inhibitory effect on smegmatis strain” value in assay [1] is reported as “good inhibitory effects”. Moreover, in assay [1] (setting [4]), the MIC was determined as 14.6 µg/mL (≈ 26.2 µM). In addition, in assay [2], the MIC is 3.66 µg/mL (≈ 6.56 µM) and the “inhibitory effect on BCG strain” value is on record as “good inhibitory effects”. Besides, in assay [3], the “inhibitory effect on H37Ra strain” value is reported as “good inhibitory effects” and the MIC came out at 3.66 µg/mL (≈ 6.56 µM).

With `Cc1c(C(=O)N2CCN(C(=O)C34CC5CC(CC(C5)C3)C4)CC2)nn(-c2ccc(Cl)cc2Cl)c1-c1ccc(Cl)cc1` [Compound 170, ((3r,5r,7r)-adamantan-1-yl)(4-(5-(4-chlorophenyl)-1-(2,4-dichlorophenyl)-4-methyl-1H-pyrazole-3-carbonyl)piperazin-1-yl)methanone], the MIC in assay [1] (setting [4]), in assay [2] and in assay [3] was above 293 µg/mL in each case.

Regarding `Cc1c(C(=O)O[C@H]2C[C@@H]3CC[C@@]2(C)C3(C)C)nn(-c2ccc(Cl)cc2Cl)c1-c1ccc(Cl)cc1` [Compound 172, (1S,2S,4S)-1,7,7-trimethyl-bicyclo[2.2.1]heptan-2-yl 5-(4-chlorophenyl)-1-(2,4-dichlorophenyl)-4-methyl-1H-pyrazole-3-carboxylate], the MIC in assay [1] (read-out: MIC (μg/mL) Mycobacterium smegmatis, mc2155, 7H9 medium, 37° C., 48 hours, resazurin) is above 338 µg/mL; in assay [2], above 338 µg/mL; in assay [3], 84.5 µg/mL (≈ 163 µM).

For the molecule `Cc1c(C(=O)O[C@H]2C[C@H]3CC[C@]2(C)C3(C)C)nn(-c2ccc(Cl)cc2Cl)c1-c1ccc(Cl)cc1` [Compound 173, (1R,2S,4R)-1,7,7-trimethyl-bicyclo[2.2.1]heptan-2-yl 5-(4-chlorophenyl)-1-(2,4-dichlorophenyl)-4-methyl-1H-pyrazole-3-carboxylate], the MIC in assay [1] (setting [4]) is 57.9 µg/mL (≈ 112 µM); in assay [2], above 232 µg/mL; in assay [3], above 232 µg/mL.

For `Cc1c(C(=O)NCCNC2C3CC4CC(C3)CC2C4)nn(-c2ccc(F)cc2F)c1-c1ccc(Cl)cc1` (stereo not drawn) [Compound 76, N-(2-(((1r,3r,5r,7r)-adamantan-2-yl)amino)ethyl)-5-(4-chloro-phenyl)-1-(2,4-difluorophenyl)-4-methyl-1H-pyrazole-3-carboxamide], in assay [1], the “inhibitory effect on smegmatis strain” value was “good inhibitory effects”. Moreover, the MIC in assay [1] (setting [4]) amounted to 7.32 µg/mL (≈ 13.9 µM). For the same molecule, in assay [2], the MIC amounted to 3.66 µg/mL (≈ 6.97 µM) and the “inhibitory effect on BCG strain” value is “good inhibitory effects”. In assay [3], the “inhibitory effect on H37Ra strain” value is recorded as “good inhibitory effects” and the MIC is 1.83 µg/mL (≈ 3.49 µM).

On to `Cc1c(CNC(=O)NC23CC4CC(CC(C4)C2)C3)nn(-c2ccc(Cl)cc2Cl)c1-c1ccc(Cl)cc1` [Compound 10, 1-((3s,5s,7s)-adamantan-1-yl)-3-((5-(4-chlorophenyl)-1-(2,4-dichlorophenyl)-4-methyl-1H-pyrazol-3-yl)methyl)urea], for which the MIC in assay [1] (setting [4]) was 171 µg/mL (≈ 314 µM); in assay [2], above 171 µg/mL; in assay [3], above 171 µg/mL.

In the case of `Cc1ccc(-n2nc(C(=O)NCCNC3C4CC5CC(C4)CC3C5)c(C)c2-c2ccc(Cl)cc2)c(C)c1` (stereo not drawn) [Compound 77, N-(2-(((1r,3r,5r,7r)-adamantan-2-yl)amino)ethyl-5-(4-chloro-phenyl)-1-(2,4-dimethylphenyl)-4-methyl-1H-pyrazole-3-carboxamide], the “inhibitory effect on smegmatis strain” value in assay [1] is “good inhibitory effects”. In addition, the MIC in assay [1] (setting [4]) was 10.4 µg/mL (≈ 20 µM). For the same molecule, in assay [2], the MIC worked out at 5.18 µg/mL (≈ 10 µM) and the “inhibitory effect on BCG strain” value is on record as “good inhibitory effects”. Also, in assay [3], the “inhibitory effect on H37Ra strain” value is “good inhibitory effects” and the MIC was 2.59 µg/mL (≈ 5.01 µM).

Consider `Cc1c(CNC(=O)CNC23CC4CC(C)(CC(C)(C4)C2)C3)nn(-c2ccc(Cl)cc2Cl)c1-c1ccc(Cl)cc1` [Compound 169, N-((5-(4-chlorophenyl)-1-(2,4-dichlorophenyl)-4-methyl-1H-pyrazol-3-yl)methyl)-2-(((1r,3R,5S,7r)-3,5-dimethyl-adamantan-1-yl)amino)-acetamide], for which the MIC is 0.95 µg/mL (≈ 1.62 µM) in assay [1] (setting [4]), 1.91 µg/mL (≈ 3.26 µM) in assay [2] and 1.91 µg/mL (≈ 3.26 µM) in assay [3].
